# Laboratory results: patent US20170216240A1, “METHODS FOR MODULATING IKS CHANNEL ACTIVITY” (UNIVERSITY OF MIAMI, priority 2014, published 2017)
# Entries after “also recorded” stand apart in the source; their conditions may differ.
# How the values were obtained:
# [1] = test system: isolated embryonic rat cardiomyocytes; test: Spontaneous action potentials in rat cardiomyocytes, whole-cell patch clamp; type: cell-based; conditions: for effect on arrhythmic firing induced by Chromanol 293B: 30 μM N-AT in the presence of 5 μM Chromanol 293B
# Description: On gestation day (GD) 16 of pregnancy time-mated Sprague Dawley rats (Taconic, Denmark) were sacrificed in a CO2 chamber followed by cervical dislocation. Cell preparation of cardiomyocytes and culturing on glass coverslips were made (Danielsson, C. et al. Cardiovasc Res 97, 23-32 (2013)). Spontaneous action potentials were measured using the patch-clamp technique, whole cell configuration, 1-3 days after culturing. An Axopatch 200B patch-clamp amplifier, Digidata 1140A converter (Molecular Devices) and pClamp software (Molecular Devices) were used to acquire data. The extracellular solution contained (in mM): 140 NaCl, 5.4 KCl, 1 MgCl2, 1.8 CaCl2, 10 Glucose and 10 HEPES (pH 7.4, adjusted with NaOH). The intracellular solution contained (in mM): 130 K-gluconate, 9 KCl, 8 NaCl, 10 EGTA, 1 MgCl2, 10 HEPES and 3 MgATP (pH 7.3, adjusted with KOH). The solutions were perfused through the recording chamber (flow: 0.5 mL/min). All chemicals were purchased from Sigma-Aldrich. […] All experiments were carried out at 35° C. To analyze action potential characteristics a stable 60-seconds recording was selected before and after application of the test solution. The average data were then calculated for the complete trace in Clampfit 10 (Molecular Devices). Liquid junction potential was not adjusted for.
# Average values are expressed as mean±SEM. Mean values for shifts in voltage dependence were analyzed using a two-tailed one samplet-test where mean values were compared with a hypothetical value of 0 or where mean values were compared to each other. Effects of N-AT on action potential peak amplitude and RMP in cardiomyocytes were analyzed using paired two-tailed t-test. Effects of N-AT on the relative change of APD and RR-interval were analyzed using two-tailed one samplet-test where mean values were compared with a hypothetical value of 1. P<0.05 is considered as statistically significant.
# The effect of N-arachidonoyl taurine on isolated embryonic rat cardiomyocytes was tested. A sub-saturating concentration of the IKs channel blocker Chromanol 293B, which is known to induce arrhythmia (Aiba, T. et al. J Am Coll Cardiol 45, 300-307 (2005)), was applied to the cardiomyocytes. In general, two types of effects are seen upon Chromanol 293B application: (1) arrhythmic firing (FIG. 8A-B) or (2) a slowing of the frequency of spontaneous action potential firing (FIG. 8D-E). The different effects are most likely due to different subtypes of cardiomyocytes. […] The anti-arrhythmic effect of N-arachidonoyl taurine was associated with a shortening of the cardiomyocyte action potential duration and an increase in the frequency of action potential firing (FIG. 8G-I, Table 2). 30 μM N-arachidonoyl taurine had no effect on the resting membrane potential (Table 2) but decreased the action potential peak amplitude by −9±1 mV (Table 2).
# Cardiomyocytes were isolated from rat heart and the spontaneous electrical activity in the cardiomyocytes was measured using the current clamp mode of patch clamp. […] Further, arrhythmia was induced in these cardiomyocytes by the IKs specific drug chromanol. In the presence of 5 μM chromanol, there are clearly additional action potentials caused by early after depolarizations (EADs) (FIG. 9D). EADs are known to accompany Long QT and could lead to ventricular fibrillation and cardiac sudden death in the intact heart. […] N-AT and chromanol are known to bind to different parts of the IKs channels (chromanol is a pore blocker, whereas N-AT is binding to the voltage sensor), so this effect of N-AT is not just a competition with chromanol to the same binding site. Rather, N-AT increases the currents by attracting the voltage sensor, whereas chromanol is known to block the currents by binding to the pore.
# [2] = 30 μM N-AT vs control, listed as N-arachidonoyl taurine
structure (smiles),measurement,setting,value
"CCCCC/C=C\C/C=C\C/C=C\C/C=C\CCCC(=O)NCCS(=O)(=O)O [N-AT, N-arachidonoyl taurine]","APD30, Mean ± SEM",[1]; 30 μM N-AT,211 ± 37 ms
same,"APD50, Mean ± SEM",[1]; 30 μM N-AT,279 ± 47 ms
same,"APD70, Mean ± SEM",[1]; 30 μM N-AT,336 ± 50 ms
same,"Amplpeak (peak action potential amplitude), Mean ± SEM",[1]; 30 μM N-AT,32 ± 2 mV
same,"RMP (resting membrane potential), Mean ± SEM",[1]; 30 μM N-AT,−56 ± 2 mV
same,"RR-interval, Mean ± SEM",[1]; 30 μM N-AT,2075 ± 197 ms
same,length of the ventricular action potential / action potential duration,[1]; 30 μM N-AT,reduced the length of the ventricular action potential; also recorded: shortened the cardiomyocyte action potential duration
same,effect on arrhythmic firing induced by Chromanol 293B,[1],restores rhythmic firing; also recorded: reversed the arrhythmic behavior
same,effect on arrhythmic firing induced by Chromanol 293B,[1]; listed as N-arachidonoyl taurine,reversed the effect
same,early after depolarizations (EADs),[1]; 30 μM N-AT in the presence of 5 μM chromanol,removed these EADs
same,"APD30, Change (relative change)",[1]; 30 μM N-AT vs control,0.81 ± 0.04
same,"APD50, Change (relative change)",[1]; 30 μM N-AT vs control,0.83 ± 0.03
same,"APD70, Change (relative change)",[1]; 30 μM N-AT vs control,0.84 ± 0.03
same,"Amplpeak, Change",[1]; 30 μM N-AT vs control,−9 ± 1 mV
same,"RR-interval, Change (relative change)",[1]; 30 μM N-AT vs control,0.74 ± 0.05
same,"Amplpeak, Change",[1]; [2],−9±1 mV
same,"RMP, Change",[1]; [2],no effect
same,permeability coefficient (Papp),Caco-2 cells,22×10^−6 cms^−1
